{"source": "patent US11325899B2", "about": "“Benzofurane and benzothiophene derivatives as PGE2 receptor modulators” (IDORSIA PHARMACEUTICALS LTD, priority 2017, dated 2022)", "key": {"[1]": {"molecular_target": "T1, EP2 receptor (Homo sapiens, UniProt P43116)", "T1 construct": "SF295 glioblastoma cells express high endogenous EP2 and no EP4; host or cells: SF295 glioblastoma cells", "T1 sequence (P43116 whole entry)": "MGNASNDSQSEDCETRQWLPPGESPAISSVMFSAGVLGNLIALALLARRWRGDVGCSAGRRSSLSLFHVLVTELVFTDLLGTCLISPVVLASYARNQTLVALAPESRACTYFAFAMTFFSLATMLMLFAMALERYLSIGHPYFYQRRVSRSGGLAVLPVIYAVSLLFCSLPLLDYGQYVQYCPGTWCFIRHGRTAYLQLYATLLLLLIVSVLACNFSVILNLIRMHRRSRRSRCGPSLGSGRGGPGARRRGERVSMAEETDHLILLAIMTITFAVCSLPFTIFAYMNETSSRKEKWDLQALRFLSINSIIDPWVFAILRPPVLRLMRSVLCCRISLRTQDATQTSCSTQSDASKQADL", "experiment": "hEP2 cAMP assay (SF295 glioblastoma cells, HTRF cAMP, PGE2 stimulation)", "format": "cell-based", "details": "antagonistic activity", "summary_of_the_method": "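SF295 glioblastoma cells with endogenous EP2 and no EP4, in HBSS/HEPES/BSA with 2 mM IBMX, pre-incubated 45 min at room temperature with compound, then stimulated 30 min with 75 nM PGE2 (EC80). cAMP measured by HTRF; IC50 fitted from duplicate % cAMP versus DMSO control.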"}, "[2]": {"molecular_target": "T2, EP4 receptor (Homo sapiens, UniProt P35408)", "T2 construct": "BT549 breast cancer cells, express high endogenous EP4 levels and very low EP2 levels; host or cells: BT549 breast cancer cells", "T2 sequence (P35408 whole entry)": "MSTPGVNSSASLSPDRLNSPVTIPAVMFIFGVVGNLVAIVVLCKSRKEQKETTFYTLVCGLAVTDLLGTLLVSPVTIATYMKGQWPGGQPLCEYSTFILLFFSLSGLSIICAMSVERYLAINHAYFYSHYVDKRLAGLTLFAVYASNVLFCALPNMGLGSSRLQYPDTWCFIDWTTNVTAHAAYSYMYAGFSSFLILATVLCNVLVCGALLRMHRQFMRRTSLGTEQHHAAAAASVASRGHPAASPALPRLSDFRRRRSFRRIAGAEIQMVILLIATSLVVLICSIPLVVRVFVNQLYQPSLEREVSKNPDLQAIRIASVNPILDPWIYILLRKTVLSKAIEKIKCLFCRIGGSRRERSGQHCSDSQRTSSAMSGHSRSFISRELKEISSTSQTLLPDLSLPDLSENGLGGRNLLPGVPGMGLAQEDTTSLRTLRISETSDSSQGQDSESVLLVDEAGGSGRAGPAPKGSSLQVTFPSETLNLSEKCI", "experiment": "hEP4 cAMP assay (BT549 breast cancer cells, HTRF cAMP, PGE2 stimulation)", "format": "cell-based", "details": "antagonistic activity, PGE2 6 nM (EC80)", "summary_of_the_method": "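BT549 cells, with endogenous EP4 and very low EP2, were preincubated 45 min at room temperature with compound in HBSS/HEPES/BSA buffer with 2 mM IBMX. They were then stimulated 30 min with 6 nM PGE2 (EC80). cAMP was measured by HTRF competitive immunoassay against a calibrator; IC50 from duplicate dose-response as % of DMSO control.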"}}, "data": [{"compound": "COc1cc(Cl)cc2c(CCNc3cc(-c4ccc(C(=O)O)c(OC5CC5)c4)ncn3)c(C)oc12", "note": "[Example 83, 4-{6-[2-(5-Chloro-7-methoxy-2-methyl-benzofuran-3-yl)-ethylamino]-pyrimidin-4-yl}-2-cyclopropoxy-benzoic acid]", "values": [{"measurement": "IC50", "setting": "[1]", "value": 44, "unit": "nM"}, {"measurement": "IC50", "setting": "[2]", "value": 111, "unit": "nM"}]}, {"compound": "CCOc1cc(-c2cc(NCCc3c(C)oc4c(C)cc(F)cc34)ncn2)sc1C(=O)O", "note": "[Example 37, 3-Ethoxy-5-{6-[2-(5-fluoro-2,7-dimethyl-benzofuran-3-yl)-ethylamino]-pyrimidin-4-yl}-thiophene-2-carboxylic acid]", "values": [{"measurement": "IC50", "setting": "[1]", "value": 2, "unit": "nM"}, {"measurement": "IC50", "setting": "[2]", "value": 49, "unit": "nM"}]}, {"compound": "CSc1cc(-c2cc(NCCc3c(C)sc4c(C)cc(F)cc34)ncn2)ccc1C(=O)O", "note": "[Example 17, 4-{6-[2-(5-Fluoro-2,7-dimethyl-benzo[b]thiophen-3-yl)-ethylamino]-pyrimidin-4-yl}-2-methylsulfanyl-benzoic acid]", "values": [{"measurement": "IC50", "setting": "[1]", "value": 9, "unit": "nM"}, {"measurement": "IC50", "setting": "[2]", "value": 243, "unit": "nM"}]}, {"compound": "CCOc1cc(-c2cc(NCCc3c(C)sc4c(C)cc(F)cc34)ncn2)sc1C(=O)O", "note": "[Example 32, 3-Ethoxy-5-{6-[2-(5-fluoro-2,7-dimethyl-benzo[b]thiophen-3-yl)-ethylamino]-pyrimidin-4-yl}-thiophene-2-carboxylic acid]", "values": [{"measurement": "IC50", "setting": "[1]", "value": 2, "unit": "nM"}, {"measurement": "IC50", "setting": "[2]", "value": 13, "unit": "nM"}]}, {"compound": "CCSc1cc(-c2cc(NCCc3c(C)sc4ccccc34)ncn2)ccc1C(=O)O", "note": "[Example 43, 2-Ethylsulfanyl-4-{6-[2-(2-methyl-benzo[b]thiophen-3-yl)-ethylamino]-pyrimidin-4-yl}-benzoic acid]", "values": [{"measurement": "IC50", "setting": "[1]", "value": 4, "unit": "nM"}, {"measurement": "IC50", "setting": "[2]", "value": 497, "unit": "nM"}]}, {"compound": "Cc1sc2c(C)cc(F)cc2c1CCNc1cc(-c2ccc(C(=O)O)c(OCCO)c2)ncn1", "note": "[Example 86, 4-{6-[2-(5-fluoro-2,7-dimethyl-benzo[b]thiophen-3-yl)-ethylamino]-pyrimidin-4-yl}-2-(2-hydroxy-ethoxy)-benzoic acid]", "values": [{"measurement": "IC50", "setting": "[1]", "value": 11, "unit": "nM"}, {"measurement": "IC50", "setting": "[2]", "value": 289, "unit": "nM"}]}, {"compound": "CCOc1cc(-c2cc(NCCc3c(C)sc4c(C)cc(F)cc34)ncn2)ccc1C(=O)O", "note": "[Example 56, 2-Ethoxy-4-{6-[2-(5-fluoro-2,7-dimethyl-benzo[b]thiophen-3-yl)-ethylamino]-pyrimidin-4-yl}-benzoic acid]", "values": [{"measurement": "IC50", "setting": "[1]", "value": 19, "unit": "nM"}, {"measurement": "IC50", "setting": "[2]", "value": 186, "unit": "nM"}]}, {"compound": "CCOc1cc(-c2cc(NCCc3csc4ccccc34)ncn2)sc1C(=O)O", "note": "[Example 33, 5-[6-(2-Benzo[b]thiophen-3-yl-ethylamino)-pyrimidin-4-yl]-3-ethoxy-thiophene-2-carboxylic acid]", "values": [{"measurement": "IC50", "setting": "[1]", "value": 17, "unit": "nM"}, {"measurement": "IC50", "setting": "[2]", "value": 18, "unit": "nM"}]}, {"compound": "CCOc1cc(-c2cc(NCCc3c(C)sc4c(OC)ccc(Cl)c34)ncn2)ccc1C(=O)O", "note": "[Example 57, 4-{6-[2-(4-Chloro-7-methoxy-2-methyl-benzo[b]thiophen-3-yl)-ethylamino]-pyrimidin-4-yl}-2-ethoxy-benzoic acid]", "values": [{"measurement": "IC50", "setting": "[1]", "value": 44, "unit": "nM"}, {"measurement": "IC50", "setting": "[2]", "value": 220, "unit": "nM"}]}, {"compound": "CCOc1cc(-c2cc(NCCc3c(C)oc4c(Cl)cc(Cl)cc34)ncn2)ccc1C(=O)O", "note": "[Example 71, 4-{6-[2-(5,7-Dichloro-2-methyl-benzofuran-3-yl)-ethylamino]-pyrimidin-4-yl}-2-ethoxy-benzoic acid]", "values": [{"measurement": "IC50", "setting": "[1]", "value": 10, "unit": "nM"}, {"measurement": "IC50", "setting": "[2]", "value": 1030, "unit": "nM"}]}, {"compound": "CCOc1cc(-c2cc(NCCc3c(C)oc4c(OC)ccc(F)c34)ncn2)sc1C(=O)O", "note": "[Example 34, 3-Ethoxy-5-{6-[2-(4-fluoro-7-methoxy-2-methyl-benzofuran-3-yl)-ethylamino]-pyrimidin-4-yl}-thiophene-2-carboxylic acid]", "values": [{"measurement": "IC50", "setting": "[1]", "value": 6, "unit": "nM"}, {"measurement": "IC50", "setting": "[2]", "value": 22, "unit": "nM"}]}, {"compound": "CCOc1cc(-c2cc(NCCc3c(C)sc4ccccc34)ncn2)ccc1C(=O)O", "note": "[Example 72, 2-Ethoxy-4-{6-[2-(2-methyl-benzo[b]thiophen-3-yl)-ethylamino]-pyrimidin-4-yl}-benzoic acid]", "values": [{"measurement": "IC50", "setting": "[1]", "value": 8, "unit": "nM"}, {"measurement": "IC50", "setting": "[2]", "value": 1590, "unit": "nM"}]}, {"compound": "CCOc1cc(-c2cc(NCCc3c(Br)sc4c(C)cc(F)cc34)ncn2)ccc1C(=O)O", "note": "[Example 58, 4-{6-[2-(2-Bromo-5-fluoro-7-methyl-benzo[b]thiophen-3-yl)-ethylamino]-pyrimidin-4-yl}-2-ethoxy-benzoic acid]", "values": [{"measurement": "IC50", "setting": "[1]", "value": 17, "unit": "nM"}, {"measurement": "IC50", "setting": "[2]", "value": 278, "unit": "nM"}]}]}
